The values that follow come from US20040259926A1, “3-Aryloxy and 3-heteroaryloxy substituted benzo[b]thiophenes as therapeutic agents” (priority 2003, published 2004).

pIC50: −log10 of the molar value.

By pIC50 is commonly meant −log10 of the IC50, conventionally taken in molar units.

T1 sequence (P48736 whole entry, species assumed): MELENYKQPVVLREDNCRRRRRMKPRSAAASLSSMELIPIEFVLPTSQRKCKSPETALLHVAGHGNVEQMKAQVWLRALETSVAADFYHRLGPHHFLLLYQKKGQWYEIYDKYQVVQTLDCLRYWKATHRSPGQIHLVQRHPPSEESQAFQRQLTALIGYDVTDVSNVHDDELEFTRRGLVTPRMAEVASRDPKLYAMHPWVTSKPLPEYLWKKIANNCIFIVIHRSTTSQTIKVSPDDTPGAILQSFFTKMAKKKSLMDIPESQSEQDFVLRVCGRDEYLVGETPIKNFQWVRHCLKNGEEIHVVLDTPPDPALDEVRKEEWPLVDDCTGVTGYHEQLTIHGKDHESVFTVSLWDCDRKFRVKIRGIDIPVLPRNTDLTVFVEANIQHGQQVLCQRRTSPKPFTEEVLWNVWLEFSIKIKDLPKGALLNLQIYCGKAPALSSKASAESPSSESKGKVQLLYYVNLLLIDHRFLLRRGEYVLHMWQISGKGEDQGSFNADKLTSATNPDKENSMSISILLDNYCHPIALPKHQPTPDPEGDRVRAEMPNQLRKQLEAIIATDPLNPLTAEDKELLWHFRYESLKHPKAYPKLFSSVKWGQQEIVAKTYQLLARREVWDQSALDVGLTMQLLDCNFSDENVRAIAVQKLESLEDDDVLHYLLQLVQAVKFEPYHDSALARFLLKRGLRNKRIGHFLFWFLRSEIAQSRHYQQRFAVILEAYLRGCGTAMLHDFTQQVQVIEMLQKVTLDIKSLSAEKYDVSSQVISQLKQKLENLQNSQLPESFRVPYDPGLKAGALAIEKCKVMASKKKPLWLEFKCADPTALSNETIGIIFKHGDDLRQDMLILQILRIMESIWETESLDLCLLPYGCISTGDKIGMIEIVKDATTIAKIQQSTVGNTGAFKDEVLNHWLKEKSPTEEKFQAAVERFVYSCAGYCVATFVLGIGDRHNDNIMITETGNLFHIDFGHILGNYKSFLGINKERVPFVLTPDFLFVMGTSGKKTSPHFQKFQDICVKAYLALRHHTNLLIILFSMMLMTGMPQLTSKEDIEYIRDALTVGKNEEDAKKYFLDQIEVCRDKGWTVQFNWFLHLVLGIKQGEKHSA
T1 sequence (Q8WYR1 whole entry partner, species assumed): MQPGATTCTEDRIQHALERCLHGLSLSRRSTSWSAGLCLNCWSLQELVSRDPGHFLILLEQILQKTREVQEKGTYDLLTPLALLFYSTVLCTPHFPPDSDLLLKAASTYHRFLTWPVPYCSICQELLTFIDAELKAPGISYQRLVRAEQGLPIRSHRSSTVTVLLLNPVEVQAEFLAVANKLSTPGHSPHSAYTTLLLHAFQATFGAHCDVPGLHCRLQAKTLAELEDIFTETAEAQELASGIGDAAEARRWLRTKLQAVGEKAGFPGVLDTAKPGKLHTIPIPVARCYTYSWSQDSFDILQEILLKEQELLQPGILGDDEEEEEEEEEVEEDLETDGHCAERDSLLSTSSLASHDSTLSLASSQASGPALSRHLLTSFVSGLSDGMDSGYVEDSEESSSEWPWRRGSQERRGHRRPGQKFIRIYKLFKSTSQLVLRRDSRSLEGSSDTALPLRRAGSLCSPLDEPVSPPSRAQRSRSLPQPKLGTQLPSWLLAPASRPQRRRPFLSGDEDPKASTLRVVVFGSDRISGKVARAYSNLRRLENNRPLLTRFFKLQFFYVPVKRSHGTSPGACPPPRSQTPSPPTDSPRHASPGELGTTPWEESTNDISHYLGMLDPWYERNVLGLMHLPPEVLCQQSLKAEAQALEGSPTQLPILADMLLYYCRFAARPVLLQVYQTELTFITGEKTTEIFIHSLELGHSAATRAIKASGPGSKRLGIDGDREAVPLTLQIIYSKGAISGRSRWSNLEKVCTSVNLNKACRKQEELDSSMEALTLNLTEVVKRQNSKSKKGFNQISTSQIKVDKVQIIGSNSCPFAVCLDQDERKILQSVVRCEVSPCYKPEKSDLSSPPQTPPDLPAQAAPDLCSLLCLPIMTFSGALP

The test has as its target T1, PI3Kγ (recombinant p101/p110γ protein) (Homo sapiens, UniProt P48736).
T1 construct: HA; made in house; host or cells: Spodoptera frugiperda (Sf9) cells, baculovirus co-infection
The experiment in a line: PI3Kγ In Vitro Kinase Assay. The format is biochemical. The following applies: purified recombinant p101/p110γ with G protein β1/γ2 subunits; 20 μM ATP, [γ-32P-ATP]; 25 μM PIP2 lipid micelles; 20 minutes at room temperature. The essentials: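 Baculovirus/Sf9-expressed p101/p110γ (~2.7 nM) with Gβ1/γ2 (~57.7 nM) in HEPES/NaCl/EGTA/DTT buffer; 20 μM ATP plus [γ-32P]ATP, micelles of 25 μM PIP2, 300 μM PE, 10 mM MgCl2. Reactions ran 20 minutes at room temperature; radiolabelled PIP3 captured on glass-fibre filters and counted for IC50.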
For the molecule `COCC1(c2ccc(Oc3c(C(=O)Nc4nn[nH]n4)sc4cc(C)c(OC)cc34)cc2)CCCC1` [Example B.59, 5-Methoxy-3-[4-(1-methoxymethyl-cyclopentyl)-phenoxy]-6-methyl-benzo[b]thiophene-2-carboxylic acid (2H-tetrazol-5-yl)-amide], the pIC50 is 7.60.
The value for `COc1cc2c(Oc3ccc(C4CCC(=O)CC4)cc3)c(C(=O)Nc3nn[nH]n3)sc2cc1C` [Example B.60, 5-Methoxy-6-methyl-3-[4-(4-oxo-cyclohexyl)-phenoxy]-benzo[b]thiophene-2-carboxylic acid (2H-tetrazol-5-yl)-amide] was 7.66; that for `COc1cc2c(Oc3ccc(C4(C(N)=O)CCCC4)cc3)c(C(=O)Nc3nn[nH]n3)sc2cc1C` [Example B.64, 3-[4-(1-carbamoyl-cyclopentyl)-phenoxy]-5-methoxy-6-methyl-benzo[b]thiophene-2-carboxylic acid (2H-tetrazol-5-yl)-amide] was 8.05; that for `COc1cc2c(Oc3ccc(C4CCC5(CC4)OCCO5)cc3)c(C(=O)Nc3nn[nH]n3)sc2cc1C` [Example B.68, 3-[4-(1,4-Dioxa-spiro[4.5]dec-8-yl)-phenoxy]-5-methoxy-6-methyl-benzo[b]thiophene-2-carboxylic acid (2H-tetrazol-5-yl)-amide] was 8.10.
Regarding `COc1cc2c(Oc3ccc(C4CCS(=O)(=O)CC4)cc3)c(C(=O)Nc3nn[nH]n3)sc2cc1C` [Example B.69, 3-[4-(1,1-Dioxo-hexahydro-1λ^6-thiopyran-4-yl)-phenoxy]-5-methoxy-6-methyl-benzo[b]thiophene-2-carboxylic acid (2H-tetrazol-5-yl)-amide], the pIC50 was 8.40.
Next, `COc1cc2c(Oc3ccc(C4CCCCC4)cc3[N+](=O)[O-])c(C(=O)Nc3nn[nH]n3)sc2cc1C` [Example B.70, 5-Methoxy-6-methyl-3-(2-nitro-4-cyclohexyl-phenoxy)-benzo[b]thiophene-2-carboxylic acid (2H-tetrazol-5-yl)-amide]: 7.77.
Take `COc1cc2c(Oc3ccc(C4CCCCC4)cc3N)c(C(=O)Nc3nn[nH]n3)sc2cc1C` [Example B.71, 3-(2-Amino-4-cyclohexyl-phenoxy)-5-methoxy-6-methyl-benzo[b]thiophene-2-carboxylic acid (2H-tetrazol-5-yl)-amide]: the pIC50 was 6.56.
The value for `COc1cc2c(Oc3ccc(C4CCCCC4)cc3OC)c(C(=O)Nc3nn[nH]n3)sc2cc1C` [Example B.72, 3-(2-Methoxy-4-cyclohexyl-phenoxy)-5-methoxy-6-methyl-benzo[b]thiophene-2-carboxylic acid (2H-tetrazol-5-yl)-amide] was 6.80; that for `COc1cc2c(Oc3ccc(C4CCCCC4)cc3Cl)c(C(=O)Nc3nn[nH]n3)sc2cc1C` [Example B.73, 3-(2-Chloro-4-cyclohexyl-phenoxy)-5-methoxy-6-methyl-benzo[b]thiophene-2-carboxylic acid (2H-tetrazol-5-yl)-amide] was 7.89; that for `COc1cc2c(Oc3ccc(C4CCCCC4)cc3Br)c(C(=O)Nc3nn[nH]n3)sc2cc1C` [Example B.74, 3-(2-Bromo-4-cyclohexyl-phenoxy)-5-methoxy-6-methyl-benzo[b]thiophene-2-carboxylic acid (2H-tetrazol-5-yl)-amide] was 7.92.
As for `COc1cc2c(Oc3ccc(C4CCCCC4)cc3C#N)c(C(=O)Nc3nn[nH]n3)sc2cc1C` [Example B.75, 3-(2-Cyano-4-cyclohexyl-phenoxy)-5-methoxy-6-methyl-benzo[b]thiophene-2-carboxylic acid (2H-tetrazol-5-yl)-amide], the pIC50 was 8.22.
Next, `COc1cc2sc(C(=O)Nc3nnn[nH]3)c(OCCc3ccccc3)c2cc1OC` [Example C.1, 5,6-Dimethoxy-3-phenethyloxy-benzo[b]thiophene-2-carboxylic acid (1H-tetrazol-5-yl)-amide]: 6.73.
Take `COc1cc2sc(C(=O)Nc3nnn[nH]3)c(OCc3cccc(Br)c3)c2cc1OC` [Example C.2, 3-(3-Bromo-benzyloxy)-5,6-dimethoxy-benzo[b]thiophene-2-carboxylic acid (1H-tetrazol-5-yl)-amide]: the pIC50 was 6.46.
Take `COc1cc2sc(C(=O)Nc3nnn[nH]3)c(OCc3ccc(F)c(F)c3)c2cc1OC` [Example C.3, 3-(3,4-Difluoro-benzyloxy)-5,6-dimethoxy-benzo[b]thiophene-2-carboxylic acid (1H-tetrazol-5-yl)-amide]: the negative logarithm of the IC50 (pIC50) is 5.44.
Take `COc1cc2sc(C(=O)Nc3nnn[nH]3)c(OCc3ccc(-c4ccccc4)cc3)c2cc1OC` [Example C.4, 3-(Biphenyl-4-ylmethoxy)-5,6-dimethoxy-benzo[b]thiophene-2-carboxylic acid (1H-tetrazol-5-yl)-amide]: the pIC50 is 5.58.
The value for `COc1cc2sc(C(=O)Nc3nnn[nH]3)c(OCc3cccc(C(F)(F)F)c3)c2cc1OC` [Example C.5, 5,6-Dimethoxy-3-(3-trifluoromethyl-benzyloxy)-benzo[b]thiophene-2-carboxylic acid (1H-tetrazol-5-yl)-amide] was 5.79; that for `COc1cc(COc2c(C(=O)Nc3nnn[nH]3)sc3cc(OC)c(OC)cc23)cc(OC)c1` [Example C.6, 3-(3,5-Dimethoxy-benzyloxy)-5,6-dimethoxy-benzo[b]thiophene-2-carboxylic acid (1H-tetrazol-5-yl)-amide] was 5.82.
Turning to `COc1cc2sc(C(=O)Nc3nnn[nH]3)c(OCc3ccc(C(C)(C)C)cc3)c2cc1OC` [Example C.7, 3-(4-tert-Butyl-benzyloxy)-5,6-dimethoxy-benzo[b]thiophene-2-carboxylic acid (1H-tetrazol-5-yl)-amide], the pIC50 was 6.01.
Next, `COc1cc2sc(C(=O)Nc3nnn[nH]3)c(OCc3c(F)ccc(F)c3F)c2cc1OC` [Example C.8, 5,6-Dimethoxy-3-(2,3,6-trifluoro-benzyloxy)-benzo[b]thiophene-2-carboxylic acid (1H-tetrazol-5-yl)-amide]: 6.25; `COc1cc2sc(C(=O)Nc3nnn[nH]3)c(O[C@H](C)Cc3ccccc3)c2cc1OC` [Example C.10, 5,6-Dimethoxy-3-((R)-1-methyl-2-phenyl-ethoxy)-benzo[b]thiophene-2-carboxylic acid (1H-tetrazol-5-yl)-amide]: 5.74.
The value for `COc1cc2sc(C(=O)Nc3nnn[nH]3)c(OCc3cccnc3)c2cc1OC` [Example C.11, 5,6-Dimethoxy-3-(pyridin-3-ylmethoxy)-benzo[b]thiophene-2-carboxylic acid (1H-tetrazol-5-yl)-amide] was 5.83; that for `COc1cc2sc(C(=O)Nc3nnn[nH]3)c(OCc3cccc(Oc4ccccc4)c3)c2cc1OC` [Example C.12, 5,6-Dimethoxy-3-(3-phenoxy-benzyloxy)-benzo[b]thiophene-2-carboxylic acid (1H-tetrazol-5-yl)-amide] was 5.94; that for `COc1cc2sc(C(=O)Nc3nnn[nH]3)c(OCC(c3ccccc3)c3ccccc3)c2cc1OC` [Example C.13, 3-(2,2-Diphenyl-ethoxy)-5,6-dimethoxy-benzo[b]thiophene-2-carboxylic acid (1H-tetrazol-5-yl)-amide] was 6.01.
